Experiments:
[1] = tested on: GP2D (KRAS G12D) cells; test: 2D cell viability assay (CellTiter-Glo); type: cell-based; conditions: GP2d, 96 h, 4 days
Method in brief: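 Viability was read by CellTiter-Glo after 4 days at 37 °C of 2D culture of KRAS G12D GP2D cells (1000/well, RPMI, 10% FBS) on pre-spotted threefold compound dilutions. EC50 was fitted with a sigmoidal dose-response model as the point of half-maximal luminescence loss.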

[2] = tested on: AsPC-1 (KRAS G12D) cells; test: 3D cell viability assay (spheroids, CellTiter-Glo 3D); type: cell-based; conditions: Homo sapiens, ASPC1, 96 h, AsPC-1 cells, 3D spheroids, 4 days
Method in brief: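 AsPC-1 cells (1000/well) in DMEM with 10% FBS formed spheroids over 3 days at 37 °C in ultra-low attachment plates, then were treated with 1:3 serial dilutions for 4 days. Viability read by CellTiter-Glo 3D luminescence; EC50 as concentration giving 50% signal decrease, sigmoidal fit.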

[3] = target: GDP-loaded KRAS G12D (Homo sapiens (Human), UniProt P01116, G12D); test: KRAS G12D (GDP) biochemical assay (TR-FRET probe displacement); type: binding; conditions: 2 hours
Method in brief: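 TR-FRET probe displacement: 1:3 DMSO serial dilutions pre-incubated 30 min with GDP-bound KRAS G12D, followed by Eu-streptavidin/probe for 2 h at room temperature (Hepes pH 7.4, NaCl, MgCl2, Tween-20 buffer). IC50 defined as concentration halving TR-FRET ratio, from sigmoidal dose-response fit.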

Sequence of GDP-loaded KRAS G12D (P01116-2 other isoform, or with tags, fused parts or gaps G12D): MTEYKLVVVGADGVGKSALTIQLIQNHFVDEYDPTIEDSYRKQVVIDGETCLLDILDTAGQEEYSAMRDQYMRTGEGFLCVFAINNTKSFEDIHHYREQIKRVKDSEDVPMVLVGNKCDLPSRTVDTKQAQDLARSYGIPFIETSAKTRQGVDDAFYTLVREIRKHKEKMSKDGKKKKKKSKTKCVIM

SMILES | EC50 [1] [nM] | EC50 [2] [nM] | IC50 [3] [nM]
C#Cc1c(F)ccc2cccc(-c3nc4c5c(nc(OC[C@@]67CCCN6C[C@H](F)C7)nc5c3F)N3C[C@H]5CC[C@H](N5)[C@H]3C[C@H]4F)c12 [Example 173, (4R,5aR,6S,9R)-2-(8-ethynyl-7-fluoronaphthalen-1-yl)-1,4-difluoro-12-(((2R,7aS)-2-fluorotetrahydro-1H-pyrrolizin-7a(5H)-yl)methoxy)-4,5,5a,6,7,8,9,10-octahydro-3,10a,11,13,14-pentaaza-6,9-methanonaphtho[1,8-ab]heptalene] | 4.2 | 100 | < 0.1
C#Cc1c(F)ccc2cccc(-c3nc4c5c(nc(OC[C@@]67CCCN6C[C@H](F)C7)nc5c3F)N3C[C@H]5CC[C@H](N5)[C@H]3C[C@@H]4CC)c12 [Example 175, (4S,5aR,6S,9R)-4-ethyl-2-(8-ethynyl-7-fluoronaphthalen-1-yl)-1-fluoro-12-(((2R,7aS)-2-fluorotetrahydro-1H-pyrrolizin-7a(5H)-yl)methoxy)-4,5,5a,6,7,8,9,10-octahydro-3,10a,11,13,14-pentaaza-6,9-methanonaphtho[1,8-ab]heptalene] | 11.9 | 150 | 0.5
C#Cc1c(F)ccc2cc(O)cc(-c3nc4c5c(nc(OCC6(CN7CC8CC8C7)CC6)nc5c3F)N3C[C@H]5CC[C@H](N5)[C@H]3CC4)c12 (stereo partly drawn) [Example 176, 4-((5aR,6S,9R)-12-((1-((3-azabicyclo[3.1.0]hexan-3-yl)methyl)cyclopropyl)methoxy)-1-fluoro-4,5,5a,6,7,8,9,10-octahydro-3,10a,11,13,14-pentaaza-6,9-methanonaphtho[1,8-ab]heptalen-2-yl)-5-ethynyl-6-fluoronaphthalen-2-ol] | 0.4 | 9.8 | 0.1
C#Cc1c(F)ccc2cc(O)cc(-c3nc4c5c(nc(OCC6(CN7CC8CC(C8)C7)CC6)nc5c3F)N3C[C@H]5CC[C@H](N5)[C@H]3CC4)c12 [Example 179, 4-((5aR,6S,9R)-12-((1-((3-azabicyclo[3.1.1]heptan-3-yl)methyl)cyclopropyl)methoxy)-1-fluoro-4,5,5a,6,7,8,9,10-octahydro-3,10a,11,13,14-pentaaza-6,9-methanonaphtho[1,8-ab]heptalen-2-yl)-5-ethynyl-6-fluoronaphthalen-2-ol] | 0.4 | 7.7 | 0.1
C#Cc1c(F)ccc2cc(O)cc(-c3nc4c5c(nc(OC[C@@]67CCCN6[C@H](COC(C(F)(F)F)(C(F)(F)F)C(F)(F)F)CC7)nc5c3F)N3C[C@H]5CC[C@H](N5)[C@H]3CCC4)c12 [Example 181, 5-ethynyl-6-fluoro-4-((6aR,7S,10R)-1-fluoro-13-(((3S,7aS)-3-(((1,1,1,3,3,3-hexafluoro-2-(trifluoromethyl)propan-2-yl)oxy)methyl)tetrahydro-1H-pyrrolizin-7a(5H)-yl)methoxy)-5,6,6a,7,8,9,10,11-octahydro-4H-3,11a,12,14,15-pentaaza-7,10-methanocyclohepta[4,5]cycloocta[1,2,3-de]naphthalen-2-yl)naphthalen-2-ol] | 0.3 | 6.9 | 0.5
C#Cc1c(F)ccc2cccc(-c3nc4c5c(nc(OC[C@@]67CCCN6C[C@H](F)C7)nc5c3F)N3C[C@H]5CC[C@H](N5)[C@H]3[C@@H](C)C4)c12 [Example 183, (5S,5aR,6S,9R)-2-(8-ethynyl-7-fluoronaphthalen-1-yl)-1-fluoro-12-(((2R,7aS)-2-fluorotetrahydro-1H-pyrrolizin-7a(5H)-yl)methoxy)-5-methyl-4,5,5a,6,7,8,9,10-octahydro-3,10a,11,13,14-pentaaza-6,9-methanonaphtho[1,8-ab]heptalene] | 63 | 270 | 1.9
C#Cc1c(F)ccc2cc(O)cc(-c3nc4c5c(nc(OCC6(CN7CCC8(CC7)CC8(F)F)CC6)nc5c3F)N3C[C@H]5CC[C@H](N5)[C@H]3CC4)c12 [Example 185, 4-((5aR,6S,9R)-12-((1-((1,1-difluoro-6-azaspiro[2.5]octan-6-yl)methyl)cyclopropyl)methoxy)-1-fluoro-4,5,5a,6,7,8,9,10-octahydro-3,10a,11,13,14-pentaaza[6,9]methanonaphtho[1,8-ab]heptalen-2-yl)-5-ethynyl-6-fluoronaphthalen-2-ol] | 2.7 | 23.1 | 0.4
C#Cc1c(F)ccc2cc(O)cc(-c3nc4c5c(nc(OC[C@@]67CCCN6C[C@H](F)C7)nc5c3F)N3C[C@H]5CC[C@H](N5)[C@H]3CCCC4)c12 [Example 189, 5-ethynyl-6-fluoro-4-((7aR,8S,11R)-1-fluoro-14-(((2R,7aS)-2-fluorotetrahydro-1H-pyrrolizin-7a(5H)-yl)methoxy)-4,5,6,7,7a,8,9,10,11,12-decahydro-3,12a,13,15,16-pentaaza-8,11-methanocyclohepta[4,5]cyclonona[1,2,3-de]naphthalen-2-yl)naphthalen-2-ol] | 0.6 | 2.9 | 0.1
C#Cc1c(F)ccc2cc(O)cc(-c3nc4c5c(nc(OC[C@@]67CCCN6C[C@H](F)C7)nc5c3F)N3C[C@@]5(C)CC[C@H](N5)[C@H]3CC4)c12 [Example 190, 5-ethynyl-6-fluoro-4-((5aR,6S,9R)-1-fluoro-12-(((2R,7aS)-2-fluorotetrahydro-1H-pyrrolizin-7a(5H)-yl)methoxy)-9-methyl-4,5,5a,6,7,8,9,10-octahydro-3,10a,11,13,14-pentaaza-6,9-methanonaphtho[1,8-ab]heptalen-2-yl)naphthalen-2-ol] | 1.5 | 7.9 | 0.1
C#Cc1c(F)ccc2cccc(-c3nc4c5c(nc(OC[C@@]67CCCN6C[C@H](F)C7)nc5c3F)N3C[C@@]5(C)CC[C@H](N5)[C@H]3CC4)c12 [Example 191, (5aR,6S,9R)-2-(8-ethynyl-7-fluoronaphthalen-1-yl)-1-fluoro-12-(((2R,7aS)-2-fluorotetrahydro-1H-pyrrolizin-7a(5H)-yl)methoxy)-9-methyl-4,5,5a,6,7,8,9,10-octahydro-3,10a,11,13,14-pentaaza-6,9-methanonaphtho[1,8-ab]heptalene] | 39.8 | 110 | 2
